Measurements as given in BindingDB's records for doi:10.1016/j.bmcl.2006.01.017 (Celera, 2006).

How the values were obtained:
[1] = molecular target: T1, Serine protease 1 (Bos taurus, UniProt P00760); test: Enzyme Inhibition Assay; conditions: pH 7.4; 22 °C
T1 sequence (P00760 whole entry): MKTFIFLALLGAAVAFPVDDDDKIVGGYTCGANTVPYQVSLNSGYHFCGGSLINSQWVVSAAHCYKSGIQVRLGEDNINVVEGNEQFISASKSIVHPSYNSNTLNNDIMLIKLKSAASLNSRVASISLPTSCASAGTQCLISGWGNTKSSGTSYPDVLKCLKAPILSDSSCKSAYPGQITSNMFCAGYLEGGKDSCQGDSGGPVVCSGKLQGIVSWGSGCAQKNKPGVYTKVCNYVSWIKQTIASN
Protocol: (§1) The apparent Ki values were then calculated according to the Cheng-Prusoff equation: Ki = IC50/1 + [S]/Km.

[2] = molecular target: T2, Coagulation factor VII (Homo sapiens, UniProt P08709); test: Enzyme Inhibition Assay; conditions: pH 7.4; 22 °C
T2 sequence (P08709 whole entry): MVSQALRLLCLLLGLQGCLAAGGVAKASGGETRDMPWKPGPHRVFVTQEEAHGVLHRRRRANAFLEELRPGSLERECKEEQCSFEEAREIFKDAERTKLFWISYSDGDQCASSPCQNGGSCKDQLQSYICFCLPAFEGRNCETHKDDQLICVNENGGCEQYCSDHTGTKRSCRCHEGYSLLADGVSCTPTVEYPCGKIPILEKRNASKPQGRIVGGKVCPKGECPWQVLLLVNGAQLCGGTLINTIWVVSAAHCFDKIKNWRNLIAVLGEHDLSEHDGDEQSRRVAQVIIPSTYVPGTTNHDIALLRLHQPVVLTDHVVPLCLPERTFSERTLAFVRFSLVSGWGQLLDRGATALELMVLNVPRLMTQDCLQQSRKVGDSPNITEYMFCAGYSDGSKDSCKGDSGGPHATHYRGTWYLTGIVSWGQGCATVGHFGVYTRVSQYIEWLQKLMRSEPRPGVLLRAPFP
Protocol: as §1

Ki [1] | Ki [2] | Structure (SMILES)
> 150 µM |  | Nc1ccc2[nH]c(-c3cc(CC(=O)O)cc(-c4cccc([N+](=O)[O-])c4)c3O)nc2n1 [2-(3-{5-amino-1H-imidazo[4,5-b]pyridin-2-yl}-4-hydroxy-5-(3-nitrophenyl)phenyl)acetic acid]
 | 7.4 µM | CS(=O)(=O)c1cccc(-c2cc(CC(=O)O)cc(-c3cc4nc(N)ccc4[nH]3)c2O)c1 [2-(3-{5-amino-1H-pyrrolo[3,2-b]pyridin-2-yl}-4-hydroxy-5-(3-methanesulfonylphenyl)phenyl)acetic acid]
 | 12 µM | NC(=O)Nc1cccc(-c2cc(CC(=O)O)cc(-c3cc4nc(N)ccc4[nH]3)c2O)c1 [2-(3-{5-amino-1H-pyrrolo[3,2-b]pyridin-2-yl}-5-[3-(carbamoylamino)phenyl]-4-hydroxyphenyl)acetic acid]
 | 1.4 µM | CN(C)CCNC(=O)NCc1cccc(-c2cc(CC(=O)O)cc(-c3cc4nc(N)ccc4[nH]3)c2O)c1 [2-(3-{5-amino-1H-pyrrolo[3,2-b]pyridin-2-yl}-5-{3-[({[2-(dimethylamino)ethyl]carbamoyl}amino)methyl]phenyl}-4-hydroxyphenyl)acetic acid]
> 150 µM |  | O=C(O)Cc1cc(-c2cccc([N+](=O)[O-])c2)c(O)c(-c2nc3ccccc3[nH]2)c1 [2-[3-(1H-1,3-benzodiazol-2-yl)-4-hydroxy-5-(3-nitrophenyl)phenyl]acetic acid]
